Measured values reported in US20250066369A1, “BICYCLIC PHTHALAZIN-1(2H)-ONE DERIVATIVES AND RELATED USES” (NodThera Limited, priority 2022, published 2025).
Counter-ions that a name gives are not always drawn.

Tested on: IL-1β release upon NLRP3 activation in peripheral blood mononuclear cells (PBMC)
Assay: PBMC IC50 determination assay: inhibition of IL-1β release upon NLRP3 activation
Assay type: cell-based
Conditions: PBMC primed with LPS 3 h, compound 30 min, stimulated with ATP (5 mM) or nigericin (10 μM) 1 h, IL-1β by ELISA (Protocol A) or HTRF (Protocol B)
Protocol: PBMC IC50 determination assay. The compounds of the present disclosure were tested for their inhibitory activity against IL-1β release upon NLRP3 activation in peripheral blood mononuclear cells (PBMC).
Protocol A. PBMC were isolated from buffy coats by density gradient centrifugation on Histopaque-1077 (Sigma, cat no. 10771). Isolated cells were seeded into the wells of a 96-well plate and incubated for 3 h with lipopolysaccharide (LPS). Following medium exchange, the compounds of the present disclosure were added (a single compound per well) and the cells were incubated for 30 min. Next, the cells were stimulated either with ATP (5 mM) or nigericin (10 μM) for 1 h and the cell culture media from the wells were collected for further analysis.
The release of IL-1β into the media was determined by a quantitative detection of IL-1β in the media using an IL-1β enzyme-linked immunosorbent assay (ELISA) Ready-SET-Go!, eBioscience cat. No. 88-7261-88. Briefly, in a first step, high affinity binding plates (Corning, Costar 9018 or NUNC Maxisorp Cat No. 44-2404) were coated overnight at 4° C. with specific capture antibody included in the kit (anti-human IL-1β ref. 14-7018-68). Subsequently, plates were blocked with blocking buffer for 1 h at room temperature (rt) and after washing with a buffer (PBS with 0.05% Tween-20) incubated with protein standard and culture media. After 2 h of incubation at rt, plates were washed and incubated with biotinylated detection antibody included in the kit (anti-human IL-1β Biotin ref 33-7110-68) for 1 h at rt. Plates were washed and incubated with HRP-streptavidin for 30 min at rt and washed again. The signal was developed after addition of 3,3′,5,5′-tetramethylbenzidine-peroxidase (TMB) until colour appeared and the reaction was stopped by 2 M H2SO4. A microplate spectrophotometer (BioTek) was used to detect signals with 450 nm. The detection range of IL-1β ELISA was […].
Protocol B. PBMC were isolated from buffy coats by density gradient centrifugation on Histopaque-1077 (Sigma, cat no. 10771). Isolated cells were seeded into the wells (280,000 cells/well) of a 96-well plate and incubated for 3 h with lipopolysaccharide (LPS, 1 μg/mL diluted 1000× from a 1 mg/mL stock solution). The compounds of the present disclosure were added (a single compound per well) and the cells were incubated for 30 min. Next, the cells were stimulated with ATP (5 mM final concentration diluted 20× from a 100 mM stock solution) for 1 h and the cell culture media from the wells were collected for further analysis.
The release of IL-1β into the media was determined by quantitative detection of IL-1β in the media using HTRF®, CisBio cat. No. 62HIL1BPEH. Briefly, cell culture supernatant were dispensed directly into the assay plate containing antibodies labelled with the HTRF® donor and acceptor. A microplate spectrophotometer (BMG) was used to detect signals at 655 nm and 620 nm. The detection range of IL-1β HTRF® was 39-6500 μg/mL.

| SMILES | IC50 (PBMC) | IC50 |
| --- | --- | --- |
| CCn1cc2c(=O)n(CC(=O)N[C@H]3CCCN4CCC[C@@H]34)nc(C(C)C)c2n1 (stereo in doubt) [Compound 7, N-[Cis-1,2,3,5,6,7,8,8a-octahydroindolizin-8-yl]-2-(2-ethyl-7-isopropyl-4-oxo-pyrazolo[3,4-d]pyridazin-5-yl) acetamide hydrochloride] | 1 to 3 µM | – |
| CC(C)c1nn(CC(=O)N[C@@H]2CCCN(C3CC3)C2)c(=O)c2c1cnn2C [Compound 1, N-[(3R)-1-Cyclopropyl-3-piperidyl]-2-(4-isopropyl-1-methyl-7-oxo-pyrazolo[3,4-d]pyridazin-6-yl)acetamide] | 3 to 10 µM | – |
| CC(C)c1nn(CC(=O)N[C@@H]2CCCN(C3CC3)C2)c(=O)c2cnn(C)c12 [Compound 2, N-[(3R)-1-Cyclopropyl-3-piperidyl]-2-(7-isopropyl-1-methyl-4-oxo-pyrazolo[3,4-d]pyridazin-5-yl)acetamide] | 1 to 3 µM | – |
| CC(C)c1nn(CC(=O)N[C@@H]2CCCN(C3CC3)C2)c(=O)c2cn(C)nc12 [Compound 3, N-[(3R)-1-Cyclopropyl-3-piperidyl]-2-(7-isopropyl-2-methyl-4-oxo-pyrazolo[3,4-d]pyridazin-5-yl)acetamide] | 3 to 10 µM | – |
| CCn1cc2c(=O)n(CC(=O)Nc3ncncc3F)nc(C(C)C)c2n1 [Compound 5, 2-(2-Ethyl-7-isopropyl-4-oxo-pyrazolo[3,4-d]pyridazin-5-yl)-N-(5-fluoropyrimidin-4-yl) acetamide] | 1 to 3 µM | – |
| CCn1cc2c(=O)n(CC(=O)N[C@@H]3CCCN(C)C3)nc(C(C)C)c2n1 [Compound 6, 2-(2-Ethyl-7-isopropyl-4-oxo-pyrazolo[3,4-d]pyridazin-5-yl)-N-[(3R)-1-methyl-3-piperidyl]acetamide] | 10 to 50 µM | – |
| CCn1cc2c(=O)n(CC(=O)Nc3ncc(F)cn3)nc(C(C)C)c2n1 [Compound 8, 2-(2-Ethyl-7-isopropyl-4-oxo-pyrazolo[3,4-d]pyridazin-5-yl)-N-(5-fluoropyrimidin-2-yl)acetamide] | 0.1 to 1 µM | – |
| CC(C)c1nn(CC(=O)N[C@@H]2CCCN(C3CC3)C2)c(=O)c2nn(C)cc12 [Compound 9, N-[(3R)-1-Cyclopropyl-3-piperidyl]-2-(4-isopropyl-2-methyl-7-oxo-pyrazolo[3,4-d]pyridazin-6-yl)acetamide] | 10 to 50 µM | – |
| CC(C)c1nn(CC(=O)N[C@@H]2CCCN(C3CC3)C2)c(=O)c2cc(Cl)sc12 [Compound 10, 2-(2-Chloro-7-isopropyl-4-oxo-thieno [2,3-d]pyridazin-5-yl)-N-[(3R)-1-cyclopropyl-3-piperidyl]acetamide] | 1 to 3 µM | – |
| CC(C)c1nn(CC(=O)N[C@@H]2CCCN(C3CC3)C2)c(=O)c2sc(Cl)cc12 [Compound 11, 2-(2-Chloro-4-isopropyl-7-oxo-thieno[2,3-d]pyridazin-6-yl)-N-[(3R)-1-cyclopropyl-3-piperidyl]acetamide] | 1 to 3 µM | – |
| CCc1cc2c(=O)n(CC(=O)Nc3ncc(F)cn3)nc(C(C)C)c2s1 [Compound 12, 2-(2-Ethyl-7-isopropyl-4-oxo-thieno[2,3-d]pyridazin-5-yl)-N-(5-fluoropyrimidin-2-yl)acetamide] | 0.1 to 1 µM | – |
| C=C(C)c1nn(CC(=O)N[C@@H]2CCCN(C3CC3)C2)c(=O)c2ncn(C)c12 [Compound 13, N-[(3R)-1-Cyclopropyl-3-piperidyl]-2-(7-isopropenyl-1-methyl-4-oxo-imidazo[4,5-d]pyridazin-5-yl)acetamide] | 10 to 50 µM | – |
| CC(C)c1nn(CC(=O)N[C@@H]2CCCN(C3CC3)C2)c(=O)c2ncn(C)c12 [Compound 14, N-[(3R)-1-Cyclopropyl-3-piperidyl]-2-(7-isopropyl-1-methyl-4-oxo-imidazo[4,5-d]pyridazin-5-yl)acetamide] | 10 to 50 µM | – |
| CC(C)c1nn(CC(=O)Nc2ncc(F)cn2)c(=O)c2cn(C(C)C)nc12 [Compound 15, 2-(2,7-Diisopropyl-4-oxo-pyrazolo[3,4-d]pyridazin-5-yl)-N-(5-fluoropyrimidin-2-yl)acetamide] | 0.1 to 1 µM | – |
| CC(C)c1nn(CC(=O)Nc2ncc(F)cn2)c(=O)c2cn(C3CC3)nc12 [Compound 17, 2-(2-Cyclopropyl-7-isopropyl-4-oxo-pyrazolo[3,4-d]pyridazin-5-yl)-N-(5-fluoropyrimidin-2-yl) acetamide] | – | 0.1 to 1 µM |
| CC(C)c1nn(CC(=O)NC2CC3(COC3)C2)c(=O)c2cnc(C3CC3)cc12 [Compound 18, 2-(7-Cyclopropyl-1-isopropyl-4-oxo-pyrido[3,4-d]pyridazin-3-yl)-N-(2-oxaspiro[3.3]heptan-6-yl)acetamide] | 10 to 50 µM | – |
| Cc1nc(NC(=O)Cn2nc(C(C)C)c3cc(C4CC4)ncc3c2=O)ns1 [Compound 19, 2-(7-Cyclopropyl-1-isopropyl-4-oxo-pyrido[3,4-d]pyridazin-3-yl)-N-(5-methyl-1,2,4-thiadiazol-3-yl)acetamide] | 10 to 50 µM | – |
| CCc1nn(CC(=O)Nc2ncc(F)cn2)c(=O)c2cn(CC)nc12 [Compound 20, 2-(2,7-Diethyl-4-oxo-pyrazolo[3,4-d]pyridazin-5-yl)-N-(5-fluoropyrimidin-2-yl)acetamide] | 10 to 50 µM | – |
| CCc1nn(CC(=O)Nc2ncccn2)c(=O)c2cn(CC)nc12 [Compound 21, 2-(2,7-Diethyl-4-oxo-pyrazolo[3,4-d]pyridazin-5-yl)-N-pyrimidin-2-yl-acetamide] | 10 to 50 µM | – |
| CCc1nn(CC(=O)NC2CC3(COC3)C2)c(=O)c2cn(CC)nc12 [Compound 22, 2-(2,7-Diethyl-4-oxo-pyrazolo[3,4-d]pyridazin-5-yl)-N-(2-oxaspiro[3.3]heptan-6-yl)acetamide] | 10 to 50 µM | – |
| CCc1cc2c(=O)n(CC(=O)Nc3ncc(F)cn3)nc(C(C)C)c2o1 [Compound 23, 2-(2-Ethyl-7-isopropyl-4-oxo-furo [2,3-d]pyridazin-5-yl)-N-(5-fluoropyrimidin-2-yl) acetamide] | 0.1 to 1 µM | – |
| CCc1cc2c(C(C)C)nn(CC(=O)Nc3ncc(F)cn3)c(=O)c2s1 [Compound 24, 2-(2-Ethyl-4-isopropyl-7-oxo-thieno[2,3-d]pyridazin-6-yl)-N-(5-fluoropyrimidin-2-yl) acetamide] | ≤ 0.1 µM | – |
| CC(C)c1nn(CC(=O)NC2CC3(COC3)C2)c(=O)c2ccc(C3CC3)nc12 [Compound 25, 2-(2-Cyclopropyl-8-isopropyl-5-oxo-pyrido[2,3-d]pyridazin-6-yl)-N-(2-oxaspiro[3.3]heptan-6-yl)acetamide] | 1 to 3 µM | – |
| Cc1nc(NC(=O)Cn2nc(C(C)C)c3nc(C4CC4)ccc3c2=O)ns1 [Compound 26, 2-(2-Cyclopropyl-8-isopropyl-5-oxo-pyrido[2,3-d]pyridazin-6-yl)-N-(5-methyl-1,2,4-thiadiazol-3-yl)acetamide] | 0.1 to 1 µM | – |
| CC(C)c1nn(CC(=O)Nc2ncccn2)c(=O)c2ccc(C3CC3)nc12 [Compound 27, 2-(2-Cyclopropyl-8-isopropyl-5-oxo-pyrido [2,3-d]pyridazin-6-yl)-N-pyrimidin-2-yl-acetamide] | 0.1 to 1 µM | – |
| CC(C)c1nn(CC(=O)Nc2ncc(F)cn2)c(=O)c2ccc(C3CC3)nc12 [Compound 28, 2-(2-Cyclopropyl-8-isopropyl-5-oxo-pyrido[2,3-d]pyridazin-6-yl)-N-(5-fluoropyrimidin-2-yl)acetamide] | 0.1 to 1 µM | – |
| CC(C)c1nn(CC(=O)N[C@@H]2CCCN(C3CCC3)C2)c(=O)c2sc(Br)cc12 [Compound 29, 2-(2-Bromo-4-isopropyl-7-oxo-thieno[2,3-d]pyridazin-6-yl)-N-[(3R)-1-cyclobutyl-3-piperidyl]acetamide] | 0.1 to 1 µM | – |
| CC(C)c1nn(CC(=O)N[C@@H]2CCCN(C3CCC3)C2)c(=O)c2sc(C#N)cc12 [Compound 30, 2-(2-Cyano-4-isopropyl-7-oxo-thieno[2,3-d]pyridazin-6-yl)-N-[(3R)-1-cyclobutyl-3-piperidyl]acetamide] | 3 to 10 µM | – |
| COCc1cc2c(C(C)C)nn(CC(=O)N[C@@H]3CCCN(C4CCC4)C3)c(=O)c2s1 [Compound 31, N-[(3R)-1-Cyclobutyl-3-piperidyl]-2-[4-isopropyl-2-(methoxymethyl)-7-oxo-thieno [2,3-d]pyridazin-6-yl]acetamide hydrochloride] | 1 to 3 µM | – |
